Measured values: US20160304970A1, “GENE BIOMARKER TO DIAGNOSE METASTIC LIVER CANCER AND METHODS FOR TARGETING THE SAME” (University of Southern California, priority 2015, published 2016)

What was measured:
CD133 (+) Huh7 cells [1] = assay: Tumor spheroid formation assay; format: cell-based, human; settings: CD133 (+) group; ATRA 5 μg/ml, SAHA 0.5 μg/ml; 2 weeks
Method: Freshly sorted CD133(+)/(−) Huh7 cells were plated in a low binding culture plate (NUNC 145397) containing 100 cells per well in 100 μl of culture medium with ATRA (5 μg/ml), SAHA (0.5 μg/ml), or a combination of both. After 2 weeks, colony numbers were counted.

CD133 (+) Huh7 cells [2] = assay: Anchorage-independent growth assay in soft agar; format: cell-based, human; settings: retinoic acid 5 μg/ml, SAHA 0.5 μg/ml; 2 weeks
Method: Freshly sorted CD133 (+)/(−) Huh7 cells were mixed with 0.35% agarose containing 1000 cells per well in culture medium with retinoic acid (5 μg/ml), SAHA (0.5 μg/ml), or a combination of both. After 2 weeks, the colony numbers were counted.

patient-derived TICs = assay: Subcutaneous xenograft of patient-derived TICs in NSG mice; format: in vivo, mouse; settings: no ATRA, i.p.
Method: To establish prognostic biomarkers for the best combination chemotherapy, five different patient-derived TICs were tested for responses as xenografts in NSG mice for the best combination chemotherapy based on mutation/transcriptome subtypes. Anti-tumorigenic ability by ATRA+SAHA targeting TICs encapsulated with SAHA was validated (Table 3). […] As placebo treatment, solvent (DMSO) in an equal total volume (0.2 ml/mouse) was injected. Tumor growth kinetics was studied. Combination of ATRA with SAHA further inhibited the self-renewal abilities of TICs in vivo (FIG. 17E).

CD133 (+) Huh7 cells [3] = assay: In vivo tumorigenicity, CD133 (+) Huh7 cells in NOG mice; parameters: species or system mouse
Method: The TUNEL staining was performed according to the manufacturer's instructions (4810-30-K, TREVIGEN). In brief, paraffin-embedded tumor sections from each group were de-paraffinized, re-hydrated, and washed twice in PBS. Samples were covered with Proteinase K solution for 30 minutes at room temperature and then washed two times in deionized water. Slides were immersed in quenching solution for 5 minutes at room temperature and then washed in PBS. Slides were incubated in TdT labeling buffer for 5 minutes, immersed with labeling reaction mix, and incubated at 37° C. for 1 hour in a humidity chamber. Samples were immersed in TdT stop buffer for 5 minutes and then washed twice in deionized water for 5 minutes each at room temperature. Samples were covered with Strep-HRP solution and incubated for 10 minutes at 37° C. and washed twice in PBS. Samples were incubated in DAB solution for 5 minutes and then washed in deionized water several times. The samples were counterstained with Methyl Green and mounted on slides for observation.
CD133 was conjugated to the terminal amine functionality on a polyethylene glycol block of polylactide-polyethylene glycol (PLA-PEG) as previously described (Swaminathan et al., 2013). PLGA (30 mg) was dissolved in 1 ml chloroform containing ATRA (6 mg). An oil-in-water emulsion was formed by emulsifying the polymer drug solution in 6 ml of 2.5% w/v aqueous PVA solution by sonication (Sonicator®XL, Misonix, N.Y.) for 5 minutes in an ice bath. The PLA-PEG-CD133 conjugate was dissolved in chloroform (8 mg/100 μl) and added to the oil-in-water emulsion with stirring. The emulsion was stirred for 18 hours at ambient conditions followed by 2 hours under vacuum to remove residual chloroform. Nanoparticles were recovered by ultracentrifugation (35,000 rpm for 35 minutes at 4° C.; OptimaTMLE-80K, Beckman, Palo Alta, Calif.) and washed three times with deionized water to remove excess PVA and unencapsulated drugs. The nanoparticle suspension was then lyophilized (Labconco, FreeZone 4.5, Kansas City, Mo.). Before injection, the lyophilized nanoparticles were re-dissolved in PBS and filtered with a 0.22 micron filter.
A half million freshly sorted CD133 (+) TICs were suspended in 100 μl of Matrigel™ (BD) and injected subcutaneously into NOD/Shi-scid/IL-2Rγ^null(NOG) mice, six mice per group. After the tumor volume reached 100 mm^3, animals received one intravenous dose of CD133-conjugated RA nanoparticle (5 μg/ml) and SAHA (0.5 μg/ml) daily. The animals were monitored regularly for tumor growth and survival every day. All animals work was performed according to national and international guidelines. Animal studies were based on a protocol approved by the Institutional Animal Care and Use Committee at University of Southern California.

Nanog = assay: Nanog-GFP reporter cell screening; format: cell-based, mouse; settings: TICs with lentivirus Nanog-GFP reporter
Method: The Nanog-GFP liver cancer stem cell line was transduced with pGreenZeo-Nanog transcriptional reporter lentivirus vector (System Biosciences SR10031VA-1). The transduced cells were positively selected with zeomycin (10 μg/ml) and further sorted for the GFP-high population (˜20% of total population) for drug screening. Nanog-GFP liver cancer stem cells were then seeded in 100 μl medium containing 5000 cells per well in a 96-well plate. After 16 hours, 0.5 μl of a […] compound was added to each well, resulting in a 10 μg/ml final concentration for most compounds. After 12 hours, the cells were fixed with 1% Paraformadehyde and stained with DAPI; compounds were screened in duplicate. The GFP and DAPI images were acquired using a BD Pathway Bioimaging Systems instrument. Z-score was calculated from the data using the formula z=(X−u)/s.d., where u is the mean, s.d. is the standard deviation of the whole population and X is the sample value calculated based on the ratio of GFP intensity to DAPI intensity. The z-score of selected hits must be less than −1.0. The average of z-score of vehicle control is 2.0±1.04.

[4] = test system: Huh7, Hep3B, HepG2, human CSCs and mouse CSCs; assay: Combination dose determination, cell viability of HCC cells; format: cell-based
Method: Freshly sorted CD133 (+) Huh7 or mouse TICs were plated in 100 μl of medium containing 5000 cells per well in a 96-well plate. After 16 hours, 0.5 μl of a 2 μg/ml, 1 μg/ml, 0.2 μg/ml, 0.1 μg/ml, 0.02 μg/ml, or 0.01 μg/ml compound was added to each well in triplicate, resulting in a 10 μg/ml, 5 μg/ml, 1 μg/ml, 0.5 μg/ml, 0.1 μg/ml, and 0.05 μg/ml final concentration for most compounds, respectively. After 48 hours, the cells were either measured for cell viability by Cell-Glo® Reagent (Promega), or fixed with 1% PFA (paraformaldehyde) and stained with DAPI for high-throughput screening.

PTEN = PTEN 3′-UTR luciferase reporter and western blot of PTEN-FOXO pathway; format: cell-based; settings: FIG. 47D

O=C(CCCCCCC(=O)Nc1ccccc1)NO [SAHA, suberoylanilide hydroxamic acid]
reduction of colony numbers, tumor spheroid formation (CD133 (+) Huh7 cells [1]): 66% | reduction of colony numbers, anchorage independent growth in soft agar (CD133 (+) Huh7 cells [2]): 50% | anti-tumorigenic ability, % (animals/total) (patient-derived TICs; SAHA 8 mg/kg (human: 300 mg)): 10% (2/20) | anti-tumorigenic ability, % (animals/total) (patient-derived TICs; SAHA 10 mg/kg (human: 400 mg)): 5% (1/20) | anti-tumorigenic ability, % (animals/total) (patient-derived TICs; SAHA 12 mg/kg (human: 500 mg)): 10% (2/20) | tumor growth (CD133 (+) Huh7 cells [3]; ATRA 5 μg/ml in CD133 antibody-conjugated nanoparticles, SAHA 0.5 μg/ml, after 4 days of treatment): did not reduce or even promote tumor growth | tumor morphology, hematoxylin and eosin stained sections (CD133 (+) Huh7 cells [3]; NOG mice, CD133 (+) Huh7 tumors): did not induce cell death of tumor cells | Nanog expression (Nanog): suppressed Nanog expression | cell growth / viability in vitro [4]: failed to reduce cell growth in vitro | luciferase-PTEN 3′-UTR reporter activity (PTEN): increased
